Values of other authors as cited in PMC3711574 (Biochemistry, 2012).

Test system: BHRF-1
Conditions: ref [67]

Sequence: MRPEIWIAQELRRIGDEFNAYYARRV [Bim]
- Binding to BHRF-1: binds
